Data from patent publication US8609700B2, “Pyridine compounds for controlling invertebrate pests I” (BASF SE, priority 2010, dated 2013).

Experiments:
Type in all cases: in vivo
[1] = test system: Brown Planthopper (Nilaparvata lugens); test: Brown planthopper, rice seedlings sprayed; settings: 500 ppm, after 72 hours
Protocol: II.7 Activity Against Brown Planthopper (Nilaparvata lugens)
The active compounds were formulated as a 50:50 (vol/vol) acetone:water solution. Surfactant (Alkamuls EL 620) was added at the rate of 0.1% (vol/vol).
Rice seedlings were cleaned and washed 24 h before spraying. Potted rice seedlings were sprayed with 5 ml test solution, air dried, placed in cages and inoculated with 10 adults. Treated rice plants were kept at 28-29° C. and relative humidity of 50-60%. Percent mortality was recorded after 72 hours.

[2] = test system: Boll Weevil (Anthonomus grandis); test: Boll weevil, insect diet in 24-well-microtiter plates; settings: 120 h, test solution 2500 mg/L, sprayed onto insect diet, 5 days, read-out: mortality (egg and larval)
Protocol: II.5 Boll Weevil (Anthonomus grandis)
The compounds were formulated in 75:25 (vol/vol) water:DMSO.
For evaluating control of boll weevil (Anthonomus grandis) the test unit consisted of 24-well-microtiter plates containing an insect diet and 20-30 A. grandis eggs. Different concentrations of formulated compounds were sprayed onto the insect diet at 20 μl, using a custom built micro atomizer, at two replications. After application, the microtiter plates were incubated at 23±1° C. and 50±5% relative humidity for 5 days. Egg and larval mortality was then visually assessed.

[3] = test system: Silverleaf Whitefly (Bemisia argentifolii, Adult); test: Silverleaf whitefly, cotton plants sprayed; settings: 300 ppm, 3 days after treatment
Protocol: II.8 Silverleaf Whitefly (Bemisia argentifolii, Adult)
The active compounds were formulated in cyclohexanone as a 10,0000 ppm solution supplied in 1.3 ml ABgene® tubes. These tubes were inserted into an automated electrostatic sprayer equipped with an atomizing nozzle and they served as stock solutions for which lower dilutions were made in 50% acetone:50% water (vol/vol). A nonionic surfactant (Kinetic®) was included in the solution at a volume of 0.01% (vol/vol).
Cotton plants at the cotyledon stage (one plant per pot) were sprayed by an automated electrostatic plant sprayer equipped with an atomizing spray nozzle. The plants were dried in the sprayer fume hood and then removed from the sprayer. Each pot was placed into a plastic cup and 10 to 12 whitefly adults (approximately 3-5 days old) were introduced. The insects were collected using an aspirator and 0.6 cm, nontoxic Tygon® tubing (R-3603) connected to a barrier pipette tip. The tip, containing the collected insects, was then gently inserted into the soil containing the treated plant, allowing insects to crawl out of the tip to reach the foliage for feeding. Cups were covered with a reusable screened lid (150-micron mesh polyester screen PeCap from Tetko, Inc.). […] Mortality was assessed 3 days after treatment, compared to untreated control plants.

[4] = test system: Cotton Aphid (Aphis gossypii, Mixed Life Stages); test: Cotton aphid, method b) (electrostatic sprayer); settings: 300 ppm; infested cotton plants sprayed; after 5 days
Protocol: II.1 Cotton Aphid (Aphis gossypii, Mixed Life Stages)
The active compounds were formulated in cyclohexanone as a 10,0000 ppm solution supplied in 1.3 ml ABgene® tubes. These tubes were inserted into an automated electrostatic sprayer equipped with an atomizing nozzle and they served as stock solutions for which lower dilutions were made in 50% acetone:50% water (vol/vol). A nonionic sur25 factant (Kinetic®) was included in the solution at a volume of 0.01% (vol/vol).
Cotton plants at the cotyledon stage were infested with aphids prior to treatment by placing a heavily infested leaf from the main aphid colony on top of each cotyledon. Aphids were allowed to transfer overnight to accomplish an infestation of 80-100 aphids per plant and the host leaf was removed. The infested plants were then sprayed by an automated electrostatic plant sprayer equipped with an atomizing spray nozzle. The plants were dried in the sprayer fume hood, removed from the sprayer, and then maintained in a growth room under fluorescent lighting in a 24-hr photoperiod at 25° C. and 20-40% relative humidity. Aphid mortality on the treated plants, relative to mortality on untreated control plants, was determined after 5 days.

SMILES: CN(C(=O)c1cccn1C)c1cccnc1 [Compound 14]
- mortality in comparison with untreated controls [1]: at least 50%

SMILES: CN(C(=O)c1cc(Cl)sc1Cl)c1cccnc1 [Compound 28, 2,5-Dichloro-thiophene-3-carboxylic acid methyl-pyridin-3-yl-amide]
- mortality at 2500 µg/mL [2]: ≥ 50%

SMILES: O=C(Nc1cccnc1)c1sccc1C(F)(F)F [Compound 7]
- mortality in comparison with untreated controls [3]: at least 75%

SMILES: O=C(Nc1cccnc1)c1cscc1C(F)(F)F [Compound 26]
- mortality in comparison with untreated controls [4]: at least 75%
